Results from patent publication US20220143103A1, “COMPOSITION FOR PREVENTING OR TREATING NEUROINFLAMMATORY DISORDERS, COMPRISING BEE VENOM EXTRACT AS ACTIVE INGREDIENT” (priority 2019, published 2022).

How the values were obtained:
Assay type in all cases: cell-based
Aβ1-42 in BV-2 cells = assay: Aβ1-42 ELISA in LPS-treated BV-2 cells; details: BV-2, LPS 1 μg/mL, Stattic 1 μM, 24 h
Experimental: Lysates of brain tissue were obtained through a protein extraction buffer containing protease inhibitors. Aβ1-42 and Aβ1-40 levels were measured using the specific mouse β-amyloid peptide 1-42 enzyme-linked immunosorbent assay (ELISA) kit (CSB-E10787m; CUSABIO, Houston, USA) and mouse β-amyloid peptide 1-40 ELISA kit (CSB-E08300m; CUSABIO, Houston, USA), respectively.
To investigate the effect of bvPLA2 on amyloidogenesis in vitro, BV-2 cells were treated with LPS and various concentrations of bvPLA2 (0.01, 0.1, 1 μg/mL) for 24 hours. Aβ1-42 levels in BV-2 cells were determined by ELISA.
The inhibitory effects of a STAT3 inhibitor (Stattic) and the bee venom extracts on amyloid production and neuroinflammation were tested in BV-2 cells. To determine the combination effect of bvPLA2 and Stattic on amyloidogenesis and neuroinflammation in vitro, BV-2 microglia were treated with LPS (1 μg/m L), Stattic (1 μM), or bvPLA2 (1 μg/mL) for 24 h.

β-secretase = β-secretase activity assay in LPS-treated BV-2 cells; details: BV-2, LPS 1 μg/mL, Stattic 1 μM, bvPLA2 1 μg/mL, 24 h; FIG. 21B
Experimental: β-secretase activity in the mouse brain was determined using a commercially available β-secretase activity assay kit (Abcam, Inc., Cambridge, Mass., USA). A solubilized membrane was extracted from brain tissues using a β-secretase extraction buffer, incubated on ice for 1 hour, and centrifuged at 5000×g for 10 minutes at 4° C. to collect supernatant.
A total of 50 μL of sample (100 μg of total protein) or blank (50 μL of β-secretase extraction buffer) was added to each well (96-well plate), then 50 μL of 2× reaction buffer and 2 μL of β-secretase substrate were incubated for 1 hour in a dark room at 37° C. Fluorescence was read at excitation and emission wavelengths of 335 and 495 nm, respectively, using a fluorescence spectrometer (Gemini EM; Molecular Devices, CA, USA).
(§1) Microglia BV-2 was cultured and treated simultaneously with LPS (1 μg/mL) or Aβ1-42 (2.5 μM) and various concentrations of bvPLA2 (0.01, 0.1, 1 μg/mL) dissolved in PBS. Cells were harvested after 24 hours to measure cell viability, Nitric Oxide concentration, and a level of pro-inflammatory cytokines.

[1] = test system: TNF-α, IL-1β, IL-6, IL-4, TGF-β in BV-2 cells; assay: qRT-PCR of cytokines in LPS-treated BV-2 cells; details: BV-2, LPS 1 μg/mL
Experimental: Pro-inflammatory and anti-inflammatory cytokine levels were measured by quantitative reverse transcription polymerase chain reaction (qRT-PCR). Total RNA was extracted from hippocampal tissue using RiboEX (Geneall biotechnology, Seoul, Korea), and cDNA was synthesized using a High-Capacity cDNA Reverse Transcription kit (Thermo Scientific, Waltham, Mass., USA).
qRT-PCR was performed on a 7500 real-time PCR system (Applied Biosystems, Foster City, Calif., USA) for custom designed primers, and β-actin was used as a house-keeping control using a HiPi Real-Time PCR SYBR green master mix (ELPIS biotech, Daejeon, Korea).
A cycling condition consisting of an initial denaturation step of 3 minutes at 94° C., a denaturation step of 30 seconds at 94° C., an annealing step of 30 seconds at 60° C., and an extension step of 1 minute at 72° C., was continued until 40 cycles. Values obtained for target gene expression were normalized to β-actin and quantified for expression in control samples.
Each sample was performed with the primers in Table 2 below.
as §1

[2] = test system: iNOS, COX-2, IBA-1 in BV-2 cells; assay: Western blot of iNOS, COX-2, IBA-1 in LPS-treated BV-2 cells; details: BV-2, LPS 1 μg/mL
Experimental: To detect target proteins, specific antibodies to iNOS, IBA-1, GFAP, APP and BACE1 (1:1000; Abcam, Inc., Cambridge, UK), COX-2 (1:1000; Novus Biologicals, Inc., CO, USA), c-Jun N-terminal kinase (JNK), extracellular signal-regulated kinase (ERK) 1/2, p-p38 and p38 ([…]; Cell signaling Technology, Inc., MA, USA), p-STAT3, STAT3, p-ERK1/2, p-JNK, and β-actin (1:200; Santa Cruz Biotechnology Inc., Santa Cruz, Calif., USA) were used.
(§2) Blots were incubated with corresponding conjugated secondary antibodies such as anti-mouse, anti-rabbit and anti-goat obtained from Santa Cruz Biotechnology Inc. (Santa Cruz, Calif., USA). Immunoreactive proteins were detected with an enhanced chemiluminescence Western blotting detection system.
as §1

[3] = test system: NF-κB (p65, p50, p-IκBα) in BV-2 cells; assay: Western blot of NF-κB subunits and p-IκBα in LPS-treated BV-2 cells; details: BV-2, LPS 1 μg/mL, bvPLA2 100 ng/mL, NF-κB inhibitor; FIG. 7B
Experimental: as §2, §1
To determine whether or not bvPLA2 affects inhibition of NF-κB translocation, the level of the NF-κB subunit in the nucleus of BV-2 cells was measured by Western blot.

| SMILES | Aβ1-42 level (ELISA) (Aβ1-42 in BV-2 cells) [pg/mg] | β-secretase activity (β-secretase) | expression levels of TNF-α, IL-1β, and IL-6 (qRT-PCR) ([1]; Stattic 1 μM, bvPLA2 1 μg/mL, 24 h, FIG. 21E) | intracellular levels of iNOS and COX-2 (Western blot) ([2]; Stattic 1 μM, bvPLA2 1 μg/mL, 24 h, FIG. 21D) | levels of p-IκBα, p65, and p50 [3] | expression levels of TNF-α, IL-1β, and IL-6 (qRT-PCR) ([1]; bvPLA2 100 ng/mL, NF-κB inhibitor, FIG. 7C) | levels of iNOS and COX-2 (Western blot) ([2]; bvPLA2 100 ng/mL, NF-κB inhibitor, FIG. 7A) |
| --- | --- | --- | --- | --- | --- | --- | --- |
| O=[N+]([O-])c1ccc2c(c1)S(=O)(=O)C=C2 [Stattic] | 264.2 ± 4.384 | decreased | decreased | decreased | – | – | – |
| Cc1ccc(S(=O)(=O)/C=C/C#N)cc1 [Bay 11-7802] | – | – | – | – | alleviated | decreased | decreased |
